Measurements from PubChem BioAssay AID180 (DTP/NCI, 2004).
Several values for one entry are separate records, joined by “and”; a condition that tells them apart may be missing. Identical values can stand only once.

System: BDF1 mice, Adenocarcinoma 755 s.c., tumor weight T/C
Assay: NCI In Vivo Anticancer Drug Screen. Data for tumor model Adenocarcinoma 755 (subcutaneous) in B6D2F1 (BDF1) mice
Settings: endpoint: mean tumor weight, higher = larger tumour
Experimental: The antitumor activity of compounds was measured in mice bearing transplantable tumors. Survival or tumor size were measured and the results are expressed as the measurement made in the treated group (T) divided by the measurement made in the vehicle treated control group (C). The tumor model used in this assay is Adenocarcinoma 755 (subcutaneous) in B6D2F1 (BDF1) mice

[1] = dose: 25.0 mg/kg/injection, schedule: Q01DX011 (ip), vehicle: methylcellulose (MC)
[2] = dose: 30.0 mg/kg/injection, schedule: Q01DX011 (ip), vehicle: carboxymethylcellulose (CMC)
[3] = dose: 60.0 mg/kg/injection, schedule: Q01DX011 (ip), vehicle: carboxymethylcellulose (CMC)
[4] = dose: 120.0 mg/kg/injection, schedule: Q01DX011 (ip), vehicle: carboxymethylcellulose (CMC)
[5] = dose: 240.0 mg/kg/injection, schedule: Q01DX011 (ip), vehicle: carboxymethylcellulose (CMC)
[6] = dose: 12.5 mg/kg/injection, schedule: Q01DX011 (ip), vehicle: other

## CC1CCN2CCC(O)C12 (configuration not stated)
dose: 7.0 mg/kg/injection, schedule: Q01DX011 (ip), vehicle: carboxymethylcellulose (CMC)
  T/C: 98 % of control

## Nc1nc(=S)cc(Nc2ccccc2Cl)[nH]1
dose: 31.0 mg/kg/injection, schedule: Q01DX011 (ip), vehicle: methylcellulose (MC)
  T/C: 101 % of control
dose: 62.0 mg/kg/injection, schedule: Q01DX011 (ip), vehicle: methylcellulose (MC)
  T/C: 156 % of control
dose: 125.0 mg/kg/injection, schedule: Q01DX011 (ip), vehicle: methylcellulose (MC)
  T/C: 93 % of control
dose: 250.0 mg/kg/injection, schedule: Q01DX011 (ip), vehicle: methylcellulose (MC)
  T/C: 122 % of control

## CCC(C)Cn1cnc2c(SCc3ccccc3)nc(N)nc21 (configuration not stated)
dose: 37.5 mg/kg/injection, schedule: Q01DX011 (ip), vehicle: carboxymethylcellulose (CMC)
  T/C: 68 % of control
dose: 75.0 mg/kg/injection, schedule: Q01DX011 (ip), vehicle: carboxymethylcellulose (CMC)
  T/C: 32 % of control
dose: 150.0 mg/kg/injection, schedule: Q01DX011 (ip), vehicle: carboxymethylcellulose (CMC)
  T/C: 21 % of control
dose: 300.0 mg/kg/injection, schedule: Q01DX011 (ip), vehicle: carboxymethylcellulose (CMC)
  T/C: 13 % of control

## Cc1ccc(N2CCN(CCCN3CCN(c4ccc(Cl)cc4)CC3)CC2)cc1
dose: 0.05 mg/kg/injection, schedule: Q01DX011 (ip), vehicle: carboxymethylcellulose (CMC)
  T/C: 100 % of control
dose: 0.09 mg/kg/injection, schedule: Q01DX011 (ip), vehicle: carboxymethylcellulose (CMC)
  T/C: 66 % of control
dose: 0.18 mg/kg/injection, schedule: Q01DX011 (ip), vehicle: carboxymethylcellulose (CMC)
  T/C: 116 % of control
dose: 0.37 mg/kg/injection, schedule: Q01DX011 (ip), vehicle: carboxymethylcellulose (CMC)
  T/C: 104 % of control
dose: 0.75 mg/kg/injection, schedule: Q01DX011 (ip), vehicle: methylcellulose (MC)
  T/C: 38 % of control
dose: 1.5 mg/kg/injection, schedule: Q01DX011 (ip), vehicle: methylcellulose (MC)
  T/C: 37 % of control
dose: 12.5 mg/kg/injection, schedule: Q01DX011 (ip), vehicle: methylcellulose (MC)
  T/C: 76 % of control
[1]
  T/C: 48 % of control
dose: 50.0 mg/kg/injection, schedule: Q01DX011 (ip), vehicle: methylcellulose (MC)
  T/C: 42 % of control and 46 % of control

## N#[N+]c1n[nH]nc1C(N)=O
dose: 6.25 mg/kg/injection, schedule: Q01DX011 (ip), vehicle: carboxymethylcellulose (CMC)
  T/C: 94 % of control
dose: 12.5 mg/kg/injection, schedule: Q01DX011 (ip), vehicle: carboxymethylcellulose (CMC)
  T/C: 63 % of control

## COC(C(O)C(O)C(O)C(O)CO)n1cnc2cncnc21 (configuration not stated)
dose: 19.0 mg/kg/injection, schedule: Q01DX011 (ip), vehicle: carboxymethylcellulose (CMC)
  T/C: 115 % of control
dose: 57.0 mg/kg/injection, schedule: Q01DX011 (ip), vehicle: carboxymethylcellulose (CMC)
  T/C: 152 % of control

## CCOC(=O)C1=C(C)NC(C)=C(C(=O)OCC)C1C
dose: 31.2 mg/kg/injection, schedule: Q01DX011 (ip), vehicle: other
  T/C: 85 % of control
dose: 62.5 mg/kg/injection, schedule: Q01DX011 (ip), vehicle: other
  T/C: 77 % of control
dose: 125.0 mg/kg/injection, schedule: Q01DX011 (ip), vehicle: other
  T/C: 79 % of control and 81 % of control

## CSc1nc2c(=O)[nH]c(N)nc2n1C1OC(CO)C(O)C1O (configuration not stated)
[2]
  T/C: 88 % of control
[3]
  T/C: 98 % of control
[4]
  T/C: 91 % of control
[5]
  T/C: 47 % of control

## C=CC(O)CN1CC1(C)C (configuration not stated) (tested in a mixture with another compound)
dose: 1.9 mg/kg/injection, schedule: Q01DX011 (ip), vehicle: methylcellulose (MC)
  T/C: 99 % of control
dose: 3.75 mg/kg/injection, schedule: Q01DX011 (ip), vehicle: methylcellulose (MC)
  T/C: 107 % of control
dose: 15.0 mg/kg/injection, schedule: Q01DX011 (ip), vehicle: methylcellulose (MC)
  T/C: 75 % of control

## O=C(CCl)N1c2ccccc2Oc2cc3ccccc3cc21
dose: 4.4 mg/kg/injection, schedule: Q01DX011 (ip), vehicle: methylcellulose (MC)
  T/C: 78 % of control
dose: 6.6 mg/kg/injection, schedule: Q01DX011 (ip), vehicle: methylcellulose (MC)
  T/C: 62 % of control
dose: 10.0 mg/kg/injection, schedule: Q01DX011 (ip), vehicle: methylcellulose (MC)
  T/C: 54 % of control
dose: 14.0 mg/kg/injection, schedule: Q01DX011 (ip), vehicle: methylcellulose (MC)
  T/C: 45 % of control
dose: 14.0 mg/kg/injection, schedule: Q01DX011 (ip), vehicle: other
  T/C: 120 % of control
dose: 28.0 mg/kg/injection, schedule: Q01DX011 (ip), vehicle: methylcellulose (MC)
  T/C: 33 % of control
dose: 28.0 mg/kg/injection, schedule: Q01DX011 (ip), vehicle: other
  T/C: 87 % of control
dose: 56.0 mg/kg/injection, schedule: Q01DX011 (ip), vehicle: other
  T/C: 61 % of control
dose: 112.0 mg/kg/injection, schedule: Q01DX011 (ip), vehicle: other
  T/C: 94 % of control

## OC1C(O)C(O)C2(CO2)C(O)C1O (configuration not stated)
dose: 300.0 mg/kg/injection, schedule: Q01DX011 (ip), vehicle: saline
  T/C: 99 % of control

## O=c1[nH]cnc2c1ncn2CCCl
[1]
  T/C: 195 % of control
dose: 75.0 mg/kg/injection, schedule: Q01DX011 (ip), vehicle: methylcellulose (MC)
  T/C: 150 % of control
dose: 225.0 mg/kg/injection, schedule: Q01DX011 (ip), vehicle: methylcellulose (MC)
  T/C: 120 % of control

## Cc1ccc(C(=O)Nc2ccc(S(=O)(=O)O)c3cc(S(=O)(=O)O)cc(S(=O)(=O)O)c23)cc1NC(=O)c1cccc(NC(=O)Nc2cccc(C(=O)Nc3cc(C(=O)Nc4ccc(S(=O)(=O)O)c5cc(S(=O)(=O)O)cc(S(=O)(=O)O)c45)ccc3C)c2)c1 (tested in a mixture with another compound)
dose: 170.0 mg/kg/injection, schedule: Q01DX011 (ip), vehicle: methylcellulose (MC)
  T/C: 88 % of control and 82 % of control
dose: 680.0 mg/kg/injection, schedule: Q01DX011 (ip), vehicle: methylcellulose (MC)
  T/C: 98 % of control

## C=CC1OCCN1CC (configuration not stated)
[6]
  T/C: 106 % of control
dose: 50.0 mg/kg/injection, schedule: Q01DX011 (ip), vehicle: other
  T/C: 87 % of control

## O=C(Nc1ccc(NC2=NCCN2)cc1)c1ccc(C(=O)Nc2ccc(NC3=NCCN3)cc2)cc1
dose: 4.0 mg/kg/injection, schedule: Q01DX011 (ip), vehicle: saline
  T/C: 96 % of control
dose: 8.0 mg/kg/injection, schedule: Q01DX011 (ip), vehicle: saline
  T/C: 85 % of control
dose: 16.0 mg/kg/injection, schedule: Q01DX011 (ip), vehicle: saline
  T/C: 83 % of control

## CCOC1CCCC(n2cnc3c(=S)nc[nH]c32)O1 (configuration not stated)
dose: 4.69 mg/kg/injection, schedule: Q01DX011 (ip), vehicle: methylcellulose (MC)
  T/C: 29 % of control
dose: 9.38 mg/kg/injection, schedule: Q01DX011 (ip), vehicle: methylcellulose (MC)
  T/C: 2 % of control

## Cn1cnc2c(C(F)(F)F)nc(Cl)nc21
dose: 30.0 mg/kg/injection, schedule: Q01DX011 (ip), vehicle: saline
  T/C: 98 % of control
dose: 60.0 mg/kg/injection, schedule: Q01DX011 (ip), vehicle: saline
  T/C: 91 % of control

## C[C@]12CCC(=O)C[C@H]1CC[C@@H]1[C@@H]2C(=O)C[C@@]2(C)[C@H]1CC[C@]2(C)O
dose: 10.0 mg/kg/injection, schedule: Q01DX011 (sc), vehicle: steriod suspending solution
  T/C: 85 % of control
dose: 100.0 mg/kg/injection, schedule: Q01DX011 (sc), vehicle: steriod suspending solution
  T/C: 103 % of control
dose: 200.0 mg/kg/injection, schedule: Q01DX011 (sc), vehicle: steriod suspending solution
  T/C: 105 % of control

## Clc1nc(Cl)c2ncn(C3CCCO3)c2n1 (configuration not stated)
dose: 33.0 mg/kg/injection, schedule: Q01DX011 (ip), vehicle: methylcellulose (MC)
  T/C: 65 % of control

## Cn1c(=O)c2[nH]c(N/N=C/c3ccccc3C(=O)O)nc2n(C)c1=O
[2]
  T/C: 103 % of control
[3]
  T/C: 92 % of control
[4]
  T/C: 88 % of control
[5]
  T/C: 95 % of control

## CC(=O)N(C(C)C)C(C)C
dose: 5.0 mg/kg/injection, schedule: Q01DX011 (ip), vehicle: other
  T/C: 95 % of control
dose: 10.0 mg/kg/injection, schedule: Q01DX011 (ip), vehicle: other
  T/C: 91 % of control

## CCCC(=O)OCC1OC(n2cnc3c(=S)nc[nH]c32)C(OC(=O)CCC)C1OC(=O)CCC (configuration not stated)
dose: 3.0 mg/kg/injection, schedule: Q01DX011 (ip), vehicle: other
  T/C: 48 % of control
dose: 3.12 mg/kg/injection, schedule: Q01DX011 (ip), vehicle: other
  T/C: 75 % of control
dose: 6.0 mg/kg/injection, schedule: Q01DX011 (ip), vehicle: other
  T/C: 16 % of control
dose: 6.25 mg/kg/injection, schedule: Q01DX011 (ip), vehicle: other
  T/C: 13 % of control
dose: 12.0 mg/kg/injection, schedule: Q01DX011 (ip), vehicle: other
  T/C: 6 % of control
[6]
  T/C: 4 % of control
